Laboratory results published in US7989394B2, “Substituted 1-(azolin-2-yl)-amino-2-aryl-1-hetaryl-ethane compounds” (BASF SE, priority 2006, dated 2011).

How the values were obtained:
[1] = system: Cotton Aphid (Aphis gossypii); experiment: Cotton aphid (Aphis gossypii) mortality on dipped cotton plants; format: in vivo; settings: 120 h, cotton cotyledons dipped, aphid mortality after 5 days, read-out: mortality in comparison with untreated controls
Protocol: I. Cotton Aphid (Aphis gossypii)
(§1) Cotton plants in the cotyledon stage (variety ‘Delta Pine’) are infested with approximately 100 laboratory-reared aphids by placing infested leaf sections on top of the test plants. The leaf sections are removed after 24 hours. The cotyledons of the intact plants are dipped into gradient solutions of the test compound. Aphid mortality on the treated plants, relative to mortality on check plants, is determined after 5 days.

[2] = system: Green Peach Aphid (Myzus persicae); experiment: Green peach aphid (Myzus persicae) mortality on dipped pepper plants; format: in vivo; settings: 120 h, pepper leaves dipped, aphid mortality after 5 days, read-out: mortality in comparison with untreated controls
Protocol: II. Green Peach Aphid (Myzus persicae)
as §1, with “Pepper” for “Cotton”, “2nd leaf-pair” for “cotyledon”, “‘California Wonder’)” for “‘Delta Pine’)”, “40” for “100”, “leaves” for “cotyledons”

Structure (SMILES)	mortality at 300 ppm [1]	mortality at 300 ppm [2]
Cc1cc(C)cc(CC(NC2=NCCS2)c2ccco2)c1 (racemic) [Example 23, (4,5-Dihydro-thiazol-2-yl)-[2-(3,5-dimethyl-phenyl)-1-furan-2-yl-ethyl]-amine]	> 70%	> 70%
Cc1cc(C)cc(CC(NC(=S)NCCO)c2cccs2)c1 (racemic) [Example 6, 1-[2-(3,5-Dimethyl-phenyl)-1-thien-2-yl-ethyl]-3-(2-hydroxy-ethyl)-thiourea]	> 70%	> 70%
Cc1cc(C)cc(CC(NC2=NCCS2)c2cccs2)c1 (racemic) [Example 22, (4,5-Dihydro-thiazol-2-yl)-[2-(3,5-dimethyl-phenyl)-1-thien-2-yl-ethyl]-amine]	> 70%	> 70%
